Measurements reported in patent publication US20250295646A1, “METHODS OF USE OF T-TYPE CALCIUM CHANNEL MODULATORS” (Praxis Precision Medicines, Inc., priority 2022, published 2025).

Legend:
[1] = Phase 1 single ascending dose (Part A) pharmacokinetics of 20 mg tablet formulation 3; conditions: human, in vivo, oral, single 60 mg, geometric mean
Experimental: This was a 2-part, Phase 1 double blind, placebo controlled trial to assess the safety, tolerability, pharmacokinetics, and pharmacodynamics (including the KSS, the KDT, the SQSQ and 24-hour EEG recordings), of single, ascending (Part A: 20, 40, and 60 mg) and multiple, ascending (Part B: 20 and 40 mg for 8 days) doses of the 20 mg tablet (formulation 3) in healthy participants. […] Variability in Cmax and AUC increased with increasing dose following a single oral dose of the 20 mg tablet formulation (formulation 3) (FIG. 16).

[2] = test system: adult patients with essential tremor; experiment: Essential tremor trial Example 16 Part A (open label 20-40 mg): TETRAS efficacy; format: in vivo, human; conditions: for TETRAS CULS Score CFB LS Mean / TETRAS PS Item 6: Archimedes Spiral (Left) Score CFB LS Mean / TETRAS PS Item 6: Archimedes Spiral (Right) Score CFB LS Mean / TETRAS PS Item 7: Handwriting Score CFB LS Mean / TETRAS PSTS Score CFB LS Mean / TETRAS ULS Score CFB LS Mean / TETRAS CULS CTA LS Mean % / TETRAS PS Item 6: Archimedes Spiral (Left) CTA LS Mean % / TETRAS PS Item 6: Archimedes Spiral (Right) CTA LS Mean % / TETRAS PS Item 7: Handwriting CTA LS Mean % / TETRAS PSTS CTA LS Mean % / TETRAS ULS CTA LS Mean %: FAS
Experimental: A two part trial (Part A and Part B as described below) was conducted to study the efficacy, safety, tolerability, and pharmacokinetics of the compound of formula (I) in adult patients with essential tremor (ET).
Participants were males and females ages 18 and older with a clinical diagnosis of ET. Participants who have a history of any other medical, neurological, or psychiatric condition that may explain or cause tremor were excluded. Participants who have previously received treatment with formula (I) in any clinical trial (including Part A of the current trial for participants enrolling in Part B) were also excluded.
In Part A, an open label trial was conducted.

[3] = test system: adult patients with essential tremor; experiment: Example 16: Clinical Global Impression (CGI-I, CGI-S); format: in vivo, human; conditions: for participants with CGI-I much improved / participants with CGI-I score reflecting no change in symptoms: Part B OLT
Excerpt: Patients were scheduled for Safety Follow-up on Day 70 (±1 day) in the clinic for the final clinical trial assessment.

[4] = Within-participant escalating dose trial Part B (20-120 mg titration): pharmacokinetics; conditions: titrated dosing schedule
Experimental: Each participant completed 3 study periods: Screening, Treatment period (12 or 31 days), and Safety follow-up.
Participants were healthy males and females between the ages of 18 and 55 years old.
In Part B, a randomized controlled trial was conducted.

[5] = Day 7, change from pre-dose baseline
[6] = Day 7, change in tremor amplitude from pre-dose baseline
[7] = Day 14, change from pre-dose baseline
[8] = Day 14, change in tremor amplitude from pre-dose baseline
[9] = Day 21 (FU Assessment), change from pre-dose baseline
[10] = Day 21 (FU Assessment), change in tremor amplitude from pre-dose baseline
[11] = Part B RWD (RWAS), Day 56, n 6, change from randomization baseline
[12] = Part B RWD (RWAS), Day 70, n 5, change from randomization baseline

CC(C)(C)NC(=O)CN1CCC(CNC(=O)c2cc(F)cc(Cl)c2)CC1 [compound of formula (I), N-((1-(2-(tert-butylamino)-2-oxoethyl)piperidin-4-yl)methyl)-3-chloro-5-fluorobenzamide]
Cmax ([1]; N = 6): ~130 ng/mL | AUC ([1]; read-out: AUC24): ~1910 ng·h/mL | TETRAS combined upper limb score, LS mean change from pre-dose baseline ([2]; Day 7): −1.667 | TETRAS upper limb score, LS mean change from pre-dose baseline ([2]; Day 7): −1.427 | reduction in combined upper limb tremor amplitude ([2]; Day 7): 16.0% | reduction in upper limb tremor amplitude ([2]; Day 7): 23.9% | TETRAS combined upper limb score, LS mean change from pre-dose baseline ([2]; Day 14): −4.239 | TETRAS upper limb score, LS mean change from pre-dose baseline ([2]; Day 14): −2.912 | reduction in combined upper limb tremor amplitude ([2]; Day 14): 35.8% | reduction in upper limb tremor amplitude ([2]; Day 14): 42.8% | TETRAS combined upper limb score, LS mean change from pre-dose baseline ([2]; Day 21 follow-up): −0.278 | reduction in combined upper limb tremor amplitude ([2]; Day 21 follow-up): 2.9% | reduction in upper limb tremor amplitude ([2]; Day 21 follow-up): 20.3% | TETRAS upper limb score, LS mean change from pre-dose baseline ([2]; Day 21 follow-up (1 week after cessation)): −1.183 | TETRAS CULS Score CFB LS Mean [2, 5]: −1.667 | TETRAS PS Item 6: Archimedes Spiral (Left) Score CFB LS Mean [2, 5]: −0.213 | TETRAS PS Item 6: Archimedes Spiral (Right) Score CFB LS Mean [2, 5]: −0.091 | TETRAS PS Item 7: Handwriting Score CFB LS Mean [2, 5]: −0.012 | TETRAS PSTS Score CFB LS Mean [2, 5]: −1.990 | TETRAS ULS Score CFB LS Mean [2, 5]: −1.427 | TETRAS CULS CTA LS Mean % [2, 6]: −16.0% | TETRAS PS Item 6: Archimedes Spiral (Left) CTA LS Mean % [2, 6]: −21.8% | TETRAS PS Item 6: Archimedes Spiral (Right) CTA LS Mean % [2, 6]: −9.9% | TETRAS PS Item 7: Handwriting CTA LS Mean % [2, 6]: −1.4% | TETRAS PSTS CTA LS Mean % [2, 6]: −13.3% | TETRAS ULS CTA LS Mean % [2, 6]: −23.9% | TETRAS CULS Score CFB LS Mean [2, 7]: −4.239 | TETRAS PS Item 6: Archimedes Spiral (Left) Score CFB LS Mean [2, 7]: −0.468 | TETRAS PS Item 6: Archimedes Spiral (Right) Score CFB LS Mean [2, 7]: −0.346 | TETRAS PS Item 7: Handwriting Score CFB LS Mean [2, 7]: −0.348 | TETRAS PSTS Score CFB LS Mean [2, 7]: −5.163 | TETRAS ULS Score CFB LS Mean [2, 7]: −2.912 | TETRAS CULS CTA LS Mean % [2, 8]: −35.8% | TETRAS PS Item 6: Archimedes Spiral (Left) CTA LS Mean % [2, 8]: −41.7% | TETRAS PS Item 6: Archimedes Spiral (Right) CTA LS Mean % [2, 8]: −32.9% | TETRAS PS Item 7: Handwriting CTA LS Mean % [2, 8]: −33.0% | TETRAS PSTS CTA LS Mean % [2, 8]: −31.0% | TETRAS ULS CTA LS Mean % [2, 8]: −42.8% | TETRAS CULS Score CFB LS Mean [2, 9]: −0.278 | TETRAS PS Item 6: Archimedes Spiral (Left) Score CFB LS Mean [2, 9]: 0.201 | TETRAS PS Item 6: Archimedes Spiral (Right) Score CFB LS Mean [2, 9]: −0.061 | TETRAS PS Item 7: Handwriting Score CFB LS Mean [2, 9]: 0.330 | TETRAS PSTS Score CFB LS Mean [2, 9]: −1.293 | TETRAS ULS Score CFB LS Mean [2, 9]: −1.183 | TETRAS CULS CTA LS Mean % [2, 10]: −2.9% | TETRAS PS Item 6: Archimedes Spiral (Left) CTA LS Mean % [2, 10]: 20.7% | TETRAS PS Item 6: Archimedes Spiral (Right) CTA LS Mean % [2, 10]: −6.7% | TETRAS PS Item 7: Handwriting CTA LS Mean % [2, 10]: 31.6% | TETRAS PSTS CTA LS Mean % [2, 10]: −8.9% | TETRAS ULS CTA LS Mean % [2, 10]: −20.3% | CGI-I Score 0 not assessed ([3]; Part A (FAS), Day 7, n 6): 0 n (%) | CGI-I Score 1 very much improved ([3]; Part A (FAS), Day 7, n 6): 0 n (%) | CGI-I Score 2 Much improved ([3]; Part A (FAS), Day 7, n 6): 1 n (%) | CGI-I Score 3 minimally improved ([3]; Part A (FAS), Day 7, n 6): 1 (16.7) n (%) | CGI-I Score 4 no change ([3]; Part A (FAS), Day 7, n 6): 4 (66.7) n (%) | CGI-I Score 5 minimally worse ([3]; Part A (FAS), Day 7, n 6): 0 n (%) | CGI-I Score 6 much worse ([3]; Part A (FAS), Day 7, n 6): 0 n (%) | CGI-I Score 7 very much worse ([3]; Part A (FAS), Day 7, n 6): 0 n (%) | CGI-I Score 0 not assessed ([3]; Part A (FAS), Day 14, n 6): 0 n (%) | CGI-I Score 1 very much improved ([3]; Part A (FAS), Day 14, n 6): 0 n (%) | CGI-I Score 2 Much improved ([3]; Part A (FAS), Day 14, n 6): 1 n (%) | CGI-I Score 3 minimally improved ([3]; Part A (FAS), Day 14, n 6): 5 (83.3) n (%) | CGI-I Score 4 no change ([3]; Part A (FAS), Day 14, n 6): 0 n (%) | CGI-I Score 5 minimally worse ([3]; Part A (FAS), Day 14, n 6): 0 n (%) | CGI-I Score 6 much worse ([3]; Part A (FAS), Day 14, n 6): 0 n (%) | CGI-I Score 7 very much worse ([3]; Part A (FAS), Day 14, n 6): 0 n (%) | participants with CGI-I score not changed relative to pre-dose baseline ([3]; Part A, Day 7): 66.7% | participants with CGI score minimally improved ([3]; Part A, Day 14): 83.3% | participants with CGI score much improved ([3]; Part A, Day 14): 16.7% | CGI-I Score 0 not assessed ([3]; Part B OLT (FAS), Day 7, n 12): 1 (8.3) n (%) | CGI-I Score 1 very much improved ([3]; Part B OLT (FAS), Day 7, n 12): 0 n (%) | CGI-I Score 2 Much improved ([3]; Part B OLT (FAS), Day 7, n 12): 1 n (%) | CGI-I Score 3 minimally improved ([3]; Part B OLT (FAS), Day 7, n 12): 5 (41.7) n (%) | CGI-I Score 4 no change ([3]; Part B OLT (FAS), Day 7, n 12): 4 (33.3) n (%) | CGI-I Score 5 minimally worse ([3]; Part B OLT (FAS), Day 7, n 12): 1 (8.3) n (%) | CGI-I Score 6 much worse ([3]; Part B OLT (FAS), Day 7, n 12): 0 n (%) | CGI-I Score 7 very much worse ([3]; Part B OLT (FAS), Day 7, n 12): 0 n (%) | CGI-I Score 0 not assessed ([3]; Part B OLT (FAS), Day 21, n 12): 0 n (%) | CGI-I Score 1 very much improved ([3]; Part B OLT (FAS), Day 21, n 12): 1 (8.3) n (%) | CGI-I Score 2 Much improved ([3]; Part B OLT (FAS), Day 21, n 12): 1 n (%) | CGI-I Score 3 minimally improved ([3]; Part B OLT (FAS), Day 21, n 12): 5 (41.7) n (%) | CGI-I Score 4 no change ([3]; Part B OLT (FAS), Day 21, n 12): 5 (41.7) n (%) | CGI-I Score 5 minimally worse ([3]; Part B OLT (FAS), Day 21, n 12): 0 n (%) | CGI-I Score 6 much worse ([3]; Part B OLT (FAS), Day 21, n 12): 0 n (%) | CGI-I Score 7 very much worse ([3]; Part B OLT (FAS), Day 21, n 12): 0 n (%) | CGI-I Score 0 not assessed ([3]; Part B OLT (FAS), Day 42, n 11): 0 n (%) | CGI-I Score 1 very much improved ([3]; Part B OLT (FAS), Day 42, n 11): 0 n (%) | CGI-I Score 2 Much improved ([3]; Part B OLT (FAS), Day 42, n 11): 4 n (%) | CGI-I Score 3 minimally improved ([3]; Part B OLT (FAS), Day 42, n 11): 4 (36.4) n (%) | CGI-I Score 4 no change ([3]; Part B OLT (FAS), Day 42, n 11): 3 (27.3) n (%) | CGI-I Score 5 minimally worse ([3]; Part B OLT (FAS), Day 42, n 11): 0 n (%) | CGI-I Score 6 much worse ([3]; Part B OLT (FAS), Day 42, n 11): 0 n (%) | CGI-I Score 7 very much worse ([3]; Part B OLT (FAS), Day 42, n 11): 0 n (%) | participants with CGI-I much improved ([3]; Day 7): 8.3% | participants with CGI-I score reflecting no change in symptoms ([3]; Day 7): 33.3% | participants with CGI-I much improved ([3]; Day 42): 36.4% | participants with CGI-I score reflecting no change in symptoms ([3]; Day 42): 27.3% | CGI-I Score 0 not assessed [3, 11]: 0 n (%) | CGI-I Score 1 very much improved [3, 11]: 0 n (%) | CGI-I Score 2 Much improved [3, 11]: 0 n (%) | CGI-I Score 3 minimally improved [3, 11]: 1 (16.7) n (%) | CGI-I Score 4 no change [3, 11]: 5 (83.3) n (%) | CGI-I Score 5 minimally worse [3, 11]: 0 n (%) | CGI-I Score 6 much worse [3, 11]: 0 n (%) | CGI-I Score 7 very much worse [3, 11]: 0 n (%) | CGI-I Score 0 not assessed [3, 12]: 0 n (%) | CGI-I Score 1 very much improved [3, 12]: 0 n (%) | CGI-I Score 2 Much improved [3, 12]: 0 n (%) | CGI-I Score 3 minimally improved [3, 12]: 0 n (%) | CGI-I Score 4 no change [3, 12]: 4 (80.0) n (%) | CGI-I Score 5 minimally worse [3, 12]: 1 (20.0) n (%) | CGI-I Score 6 much worse [3, 12]: 0 n (%) | CGI-I Score 7 very much worse [3, 12]: 0 n (%) | increase of Cmax and AUC24 above values of a lower dosage not tolerated without titration [4]: 2-3 fold
